Here are results for nine compounds from US9040545B2, “Heterocyclyl pyrazolopyrimidine analogues as selective JAK inhibitors” (Cellzome Limited, priority 2010, dated 2015).

One assay deals with T1, Aurora B (Homo sapiens, UniProt Q96GD4).
T1 construct: cell lysates from Jurkat cells (ATCC TIB-152) used; endogenous in cells; host or cells: Jurkat cells (ATCC TIB-152), treated with pervanadate
Description: Kinobeads assay, Aurora B. The format is binding. Particulars: for IC50: lysate of pervanadate-treated Jurkat cells, read-out: Inhibition values (IC50) Aur B. On the procedure:
(§1) The compounds of the present invention as described in the previous examples were tested in a Kinobeads™ assay as described for ZAP-70 (WO-A 2007/137867). Briefly, test compounds (at various concentrations) and the affinity matrix with the immobilized aminopyrido-pyrimidine ligand 24 were added to cell lysate aliquots and allowed to bind to the proteins in the lysate sample. After the incubation time the beads with captured proteins were separated from the lysate. Bound proteins were then eluted and the presence of JAK2 and JAK3 was detected and quantified using specific antibodies in a dot blot procedure and the Odyssey infrared detection system. Dose response curves for individual kinases were generated and IC50 values calculated. Kinobeads™ assays for ZAP-70 (WO-A 2007/137867) and for kinase selectivity profiling (WO-A 2006/134056) have been previously described.
(§2) The affinity matrix was washed two times with 15 mL of 1×DP buffer containing 0.2% NP40 (IGEPAL® CA-630, Sigma, #I3021) and then resuspended in 1×DP buffer containing 0.2% NP40 (3% beads slurry).
(§3) 5×DP buffer 250 mM Tris-HCl pH 7.4, 25% Glycerol, 7.5 mM MgCl2, 750 mM NaCl, 5 mM Na3VO4; filter the 5×DP buffer through a 0.22 μm filter and store in aliquots at −80° C. The 5×DP buffer is diluted with H2O to 1×DP buffer containing 1 mM DTT and 25 mM NaF.
(§4) Stock solutions of test compounds were prepared in DMSO. In a 96 well plate 30 μL solution of diluted test compounds at 5 mM in DMSO were prepared. Starting with this solution a 1:3 dilution series (9 steps) was prepared. For control experiments (no test compound) a buffer containing 2% DMSO was used.
(§5) Cell lysate (approximately 50 mg protein per plate) was thawed in a water bath at room temperature and then stored on ice. To the thawed cell lysate 1×DP 0.8% NP40 buffer containing protease inhibitors (1 tablet for 25 mL buffer; EDTA-free protease inhibitor cocktail; Roche Diagnostics 1873580) was added in order to reach a final protein concentration of 10 mg/mL total protein. The diluted cell lysate was stored on ice. Mixed Molt4/Ramos lysate was prepared by combining one volume of Molt4 lysate and two volumes of Ramos lysate (ratio 1:2).
(§6) To a 96 well filter plate (Multiscreen HTS, BV Filter Plates, Millipore #MSBVN1250) were added per well: 100 μL affinity matrix (3% beads slurry), 3 μL of compound solution, and 50 μL of diluted lysate. Plates were sealed and incubated for 3 hours in a cold room on a plate shaker (Heidolph tiramax 1000) at 750 rpm. Afterwards the plate was washed 3 times with 230 μL washing buffer (1×DP 0.4% NP40). The filter plate was placed on top of a collection 1 plate (Greiner bio-one, PP-microplate 96 well V-shape, 65120) and the beads were then eluted with 20 μL of sample buffer (100 mM Tris, pH 7.4, 4% SDS, 0.00025% bromophenol blue, 20% glycerol, 50 mM DTT). The eluate was frozen quickly at −80° C. and stored at −20° C.
(§7) The kinases in the eluates were detected and quantified by spotting on nitrocellulose membranes and using a first antibody directed against the kinase of interest and a fluorescently labelled secondary antibody (anti-rabbit IRDye™ antibody 800 (Licor, #926-32211). The Odyssey Infrared Imaging system from LI-COR Biosciences (Lincoln, Nebr., USA) was operated according to instructions provided by the manufacturer (Schutz-Geschwendener et al, 2004. Quantitative, two-color Western blot detection with infrared fluorescence. Published May 2004 by LI-COR Biosciences, www.licor.com).
(§8) After spotting of the eluates the nitrocellulose membrane (BioTrace NT; PALL, #BTNT30R) was first blocked by incubation with Odyssey blocking buffer (LICOR, 927-40000) for 1 hour at room temperature. Blocked membranes were then incubated for 16 hours at the temperature shown in Table 5 with the first antibody diluted in Odyssey blocking buffer (LICOR #927-40000). Afterwards the membrane was washed twice for 10 minutes with PBS buffer containing 0.2% Tween 20 at room temperature. […]

In another assay the target is T2, Aurora A (Homo sapiens, UniProt O14965).
T2 construct: cell lysates from Jurkat cells (ATCC TIB-152) used; endogenous in cells; host or cells: Jurkat cells (ATCC TIB-152), treated with pervanadate
T2 sequence (O14965 1-403): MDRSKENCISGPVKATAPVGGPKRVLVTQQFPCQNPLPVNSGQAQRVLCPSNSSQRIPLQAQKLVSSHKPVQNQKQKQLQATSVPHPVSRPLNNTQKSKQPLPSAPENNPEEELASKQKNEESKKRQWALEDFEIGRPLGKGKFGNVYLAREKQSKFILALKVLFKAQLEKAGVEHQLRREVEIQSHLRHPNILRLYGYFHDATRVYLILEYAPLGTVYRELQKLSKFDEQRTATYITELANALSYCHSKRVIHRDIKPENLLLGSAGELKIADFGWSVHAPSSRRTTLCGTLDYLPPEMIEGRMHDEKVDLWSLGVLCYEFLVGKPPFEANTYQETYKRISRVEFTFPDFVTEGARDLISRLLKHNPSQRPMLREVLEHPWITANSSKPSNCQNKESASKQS
Briefly: Kinobeads assay, Aurora A. The format is binding. Conditions: for IC50: lysate of pervanadate-treated Jurkat cells, read-out: Inhibition values (IC50) Aur A. How it is done:
as §1, §2, §3, §4, §5, §6, §7, §8

T1 sequence (Q96GD4 whole entry): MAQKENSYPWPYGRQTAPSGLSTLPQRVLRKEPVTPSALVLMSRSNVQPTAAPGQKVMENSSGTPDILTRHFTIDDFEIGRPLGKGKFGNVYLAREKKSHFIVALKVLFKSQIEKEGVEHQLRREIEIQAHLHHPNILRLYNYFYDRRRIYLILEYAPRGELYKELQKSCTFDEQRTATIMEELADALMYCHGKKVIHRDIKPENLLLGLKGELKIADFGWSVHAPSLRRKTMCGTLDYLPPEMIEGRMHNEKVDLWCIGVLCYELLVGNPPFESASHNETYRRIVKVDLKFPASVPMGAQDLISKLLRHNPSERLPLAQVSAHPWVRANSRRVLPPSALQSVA

In general, IC50 refers to the concentration that gives 50% inhibition. For `Cn1cc(Nc2ncc3cnn(Cc4cccc(N5CCC(F)(F)CC5)c4)c3n2)cn1` [Example 19, 1-(3-(4,4-Difluoropiperidin-1-yl)benzyl)-N-(1-methyl-1H-pyrazol-4-yl)-1H-pyrazolo[3,4-d]pyrimidin-6-amine], at Aurora B, the “JAK3/AurB Fold Selectivity” value is 10-50 Fold and the concentration for half-maximal inhibition (IC50) is not below 10000 nM. Besides, on Aurora A, the “JAK3/AurA Fold Selectivity” value is recorded as 10-50 Fold and the IC50 fell in the range of 1000 to 10000 nM.

Take `CN1CCN(c2cccc(Cn3ncc4cnc(Nc5cnn(C)c5)nc43)c2)CC1` [Example 10, N-(1-Methyl-1H-pyrazol-4-yl)-1-(3-(4-methylpiperazin-1-yl)benzyl)-1H-pyrazolo[3,4-d]pyrimidin-6-amine]: on Aurora B, the “JAK3/AurB Fold Selectivity” value is 10-50 Fold and the half-inhibitory concentration (IC50) lay within 100 to 1000 nM. On Aurora A, the “JAK3/AurA Fold Selectivity” value is reported as 3-10 Fold and the IC50 fell in the range of 100 to 1000 nM.

Consider `CC(C)n1cc(-c2cccc(Cn3ncc4cnc(Nc5cnn(C)c5)nc43)c2)cn1` [Example 117, 1-(3-(1-isopropyl-1H-pyrazol-4-yl)benzyl)-N-(1-methyl-1H-pyrazol-4-yl)-1H-pyrazolo[3,4-d]pyrimidin-6-amine], for which, at Aurora B, the “JAK3/AurB Fold Selectivity” value was more than 50 Fold and the 50% inhibitory concentration (IC50) was not below 10000 nM. Besides, on Aurora A, the “JAK3/AurA Fold Selectivity” value is 3-10 Fold and the 50% inhibitory concentration (IC50) fell in the range of 100 to 1000 nM.

`O=C1COCCN1c1cc(F)cc(Cn2ncc3cnc(Nc4cnn(CC5CCNC5)c4)nc32)c1` (stereo not drawn) [Example 101, 4-(3-fluoro-5-((6-((1-(pyrrolidin-3-ylmethyl)-1H-pyrazol-4-yl)amino)-1H-pyrazolo[3,4-d]pyrimidin-1-yl)methyl)phenyl)morpholin-3-one]: at Aurora B, the “JAK3/AurB Fold Selectivity” value is on record as 10-50 Fold and the IC50 is 100 to 1000 nM. In addition, on Aurora A, the “JAK3/AurA Fold Selectivity” value is 10-50 Fold and the IC50 is less than 100 nM.

With `O=C1CC(Cn2cc(Nc3ncc4cnn(Cc5cc(F)cc(N6CCOCC6=O)c5)c4n3)cn2)CN1` (stereo not drawn) [Example 105, 4-(3-fluoro-5-((6-((1-((5-oxopyrrolidin-3-yl)methyl)-1H-pyrazol-4-yl)amino)-1H-pyrazolo[3,4-d]pyrimidin-1-yl)methyl)phenyl)morpholin-3-one], on Aurora B, the “JAK3/AurB Fold Selectivity” value is reported as more than 50 Fold and the 50% inhibitory concentration (IC50) lay within 100 to 1000 nM. Further, on Aurora A, the “JAK3/AurA Fold Selectivity” value is recorded as 10-50 Fold and the IC50 lay within 100 to 1000 nM.

Consider `CN(C)C(=O)CCn1cc(Nc2ncc3cnn(Cc4cccc(N5CCOCC5)c4)c3n2)cn1` [Example 16, N,N-Dimethyl-3-(4-((1-(3-morpholinobenzyl)-1H-pyrazolo[3,4-d]pyrimidin-6-yl)amino)-1H-pyrazol-1-yl)propanamide], for which, on Aurora B, the “JAK3/AurB Fold Selectivity” value was 10-50 Fold and the IC50 was 100 to 1000 nM. Besides, on Aurora A, the “JAK3/AurA Fold Selectivity” value was 10-50 Fold and the IC50 lay within 100 to 1000 nM.

Take `O=C(CCn1cc(Nc2ncc3cnn(Cc4cccc(N5CCOCC5)c4)c3n2)cn1)N1CCCCC1` [Example 20, 3-(4-((1-(3-Morpholinobenzyl)-1H-pyrazolo[3,4-d]pyrimidin-6-yl)amino)-1H-pyrazol-1-yl)-1-(piperidin-1-yl)propan-1-one]: at Aurora B, the “JAK3/AurB Fold Selectivity” value is more than 50 Fold and the IC50 fell in the range of 1000 to 10000 nM. In addition, on Aurora A, the “JAK3/AurA Fold Selectivity” value was 10-50 Fold and the IC50 was in the range of 100 to 1000 nM.

On to `C[C@@H]1COCCN1c1cccc(Cn2ncc3cnc(Nc4cnn(C)c4)nc32)c1` [Example 113, (R)-N-(1-methyl-1H-pyrazol-4-yl)-1-(3-(3-methylmorpholino)benzyl)-1H-pyrazolo[3,4-d]pyrimidin-6-amine], for which, on Aurora B, the “JAK3/AurB Fold Selectivity” value is more than 50 Fold and the IC50 lay within 1000 to 10000 nM. For the same compound, at Aurora A, the “JAK3/AurA Fold Selectivity” value is on record as more than 50 Fold and the 50% inhibitory concentration (IC50) was in the range of 1000 to 10000 nM.

In the case of `Cc1c(Cn2ncc3cnc(Nc4cnn(C)c4)nc32)cccc1N1CCOCC1` [Example 11, N-(1-Methyl-1H-pyrazol-4-yl)-1-(2-methyl-3-morpholinobenzyl)-1H-pyrazolo[3,4-d]pyrimidin-6-amine], at Aurora B, the “JAK3/AurB Fold Selectivity” value was 10-50 Fold and the IC50 was in the range of 100 to 1000 nM. In addition, at Aurora A, the “JAK3/AurA Fold Selectivity” value is 10-50 Fold and the IC50 fell in the range of 100 to 1000 nM.
